Read-outs that look alike come from different tables or passages of the source.
What was measured:
Rhesus PDE2A3 = Rhesus PDE2A3 (Macaca mulatta, UniProt B3VTJ2); assay: PDE2 fluorescence polarization (IMAP FP) assay, rhesus PDE2A3; assay type: biochemical, rhesus macaque
human PDE2A1 = human PDE2A1 (Homo sapiens (Human), UniProt O00408); assay: PDE selectivity IMAP FP assay, human PDE2A1; assay type: biochemical; details: Human PDE2
In short: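 IMAP fluorescence polarization assay; PDE2 substrate 50 nM FAM-cAMP containing 1000 nM cGMP, enzyme diluted for 20% substrate conversion, in 10 mM Tris HCl pH 7.2, 10 mM MgCl2, 1 mM DTT. Reaction 60 min at room temperature, stopped with IMAP binding solution; polarization read after 1 h. Ki reported.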

[1] = Lab A, read-out: Rhesus PDE2 Ki (nM) Lab A
[2] = Lab A, read-out: Human PDE2 Ki (nM) Lab A
[3] = Lab B, read-out: Rhesus PDE2 Ki (nM) Lab B
[4] = Lab B, read-out: Human PDE2 Ki (nM) Lab B

human PDE2A1, sequence (O00408 other isoform, or with tags, fused parts or gaps): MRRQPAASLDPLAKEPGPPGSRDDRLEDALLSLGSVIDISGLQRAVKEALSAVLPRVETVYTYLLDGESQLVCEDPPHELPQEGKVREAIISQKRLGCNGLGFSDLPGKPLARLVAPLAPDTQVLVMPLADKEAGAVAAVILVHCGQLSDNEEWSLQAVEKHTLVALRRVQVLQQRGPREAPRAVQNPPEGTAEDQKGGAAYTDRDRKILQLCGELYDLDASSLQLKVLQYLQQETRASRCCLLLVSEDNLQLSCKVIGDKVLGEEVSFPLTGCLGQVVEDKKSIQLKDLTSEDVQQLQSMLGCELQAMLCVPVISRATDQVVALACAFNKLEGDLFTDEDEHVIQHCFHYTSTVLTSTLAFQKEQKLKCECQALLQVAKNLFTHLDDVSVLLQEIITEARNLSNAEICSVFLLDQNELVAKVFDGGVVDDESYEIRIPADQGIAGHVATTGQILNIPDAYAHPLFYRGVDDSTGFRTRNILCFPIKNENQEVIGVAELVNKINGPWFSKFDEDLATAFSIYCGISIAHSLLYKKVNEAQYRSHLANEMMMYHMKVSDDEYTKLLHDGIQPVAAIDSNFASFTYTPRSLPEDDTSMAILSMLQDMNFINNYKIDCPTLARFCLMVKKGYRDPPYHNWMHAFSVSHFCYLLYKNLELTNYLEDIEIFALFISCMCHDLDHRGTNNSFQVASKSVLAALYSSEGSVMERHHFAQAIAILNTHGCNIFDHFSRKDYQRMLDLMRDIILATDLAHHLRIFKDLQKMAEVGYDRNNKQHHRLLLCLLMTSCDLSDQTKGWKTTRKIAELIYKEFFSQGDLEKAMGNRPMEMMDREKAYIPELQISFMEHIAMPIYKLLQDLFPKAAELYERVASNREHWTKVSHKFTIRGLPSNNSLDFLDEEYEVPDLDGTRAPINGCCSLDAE
Rhesus PDE2A3, sequence (B3VTJ2 1-941): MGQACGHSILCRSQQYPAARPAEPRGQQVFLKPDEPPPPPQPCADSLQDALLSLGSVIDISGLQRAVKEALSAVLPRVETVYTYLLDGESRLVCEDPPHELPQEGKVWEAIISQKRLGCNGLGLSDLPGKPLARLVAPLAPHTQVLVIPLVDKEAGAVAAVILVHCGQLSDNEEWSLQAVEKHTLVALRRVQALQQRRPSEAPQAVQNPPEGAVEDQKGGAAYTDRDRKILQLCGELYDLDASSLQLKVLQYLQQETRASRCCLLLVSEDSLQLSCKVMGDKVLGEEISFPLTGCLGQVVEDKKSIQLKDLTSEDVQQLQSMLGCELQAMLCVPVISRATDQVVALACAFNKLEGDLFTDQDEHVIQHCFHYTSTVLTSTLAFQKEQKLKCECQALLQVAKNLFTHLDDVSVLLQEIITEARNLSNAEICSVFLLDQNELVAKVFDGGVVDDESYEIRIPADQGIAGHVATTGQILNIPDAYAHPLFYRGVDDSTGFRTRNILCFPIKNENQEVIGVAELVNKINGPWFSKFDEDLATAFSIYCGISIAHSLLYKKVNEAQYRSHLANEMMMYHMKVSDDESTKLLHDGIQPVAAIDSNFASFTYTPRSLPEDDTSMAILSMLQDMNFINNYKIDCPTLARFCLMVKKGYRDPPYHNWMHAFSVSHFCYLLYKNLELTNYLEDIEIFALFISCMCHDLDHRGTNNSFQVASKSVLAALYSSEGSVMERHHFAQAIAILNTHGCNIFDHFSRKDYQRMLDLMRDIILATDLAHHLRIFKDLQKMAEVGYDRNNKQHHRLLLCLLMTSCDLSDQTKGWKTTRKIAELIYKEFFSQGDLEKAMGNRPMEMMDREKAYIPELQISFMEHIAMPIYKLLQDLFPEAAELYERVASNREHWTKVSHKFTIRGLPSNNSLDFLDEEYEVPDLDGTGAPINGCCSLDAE

Row | Compound | Ki (Rhesus PDE2A3; [1]) | Ki (human PDE2A1; [2]) | Ki (Rhesus PDE2A3; [3]) | Ki (human PDE2A1; [4])
1 | CC(c1ccc(C(F)(F)F)cc1)n1nc(CC(F)(F)F)c2c(=O)[nH]c(O)nc21 (single isomer, unassigned) [Example 256, (R)- or (S)-6-Hydroxy-3-(2,2,2-trifluoroethyl)-1-{1-[4-(trifluoromethyl)phenyl]ethyl}-1,5-dihydro-4H-pyrazolo[3,4-d]pyrimidin-4-one] | 166 nM | 126 nM | – | –
2 | CC(c1ccc(C(F)(F)F)cc1)n1nc(CC(F)(F)F)c2c(=O)[nH]c(O)nc21 (single isomer, unassigned) [Example 257, (S)- or (R)-6-Hydroxy-3-(2,2,2-trifluoroethyl)-1-{1-(4-(trifluoromethyl)phenyl]ethyl}-1,5-dihydro-4H-pyrazolo[3,4-d]pyrimidin-4-one] | 0.96 nM | 0.68 nM | 1.5 nM | 2 nM
3 | CC(C)C(c1ccc(C(F)(F)F)c(F)c1)n1nc(CC(F)(F)F)c2c(=O)[nH]c(O)nc21 (single isomer, unassigned) [Example 258] | – | – | 10 nM | 9.7 nM
4 | CC(C)C(c1ccc(C(C)(C)C)cc1)n1nc(CC(F)(F)F)c2c(=O)[nH]c(O)nc21 (single isomer, unassigned) [Example 260, (R)- or (S)-1-(1-(4-tert-Butylphenyl)-2-methylpropyl)-6-hydroxy-3-(2,2,2-trifluoroethyl)-1H-pyrazolo[3,4-d]pyrimidin-4(5H)-one] | – | – | 26 nM | 25 nM
5 | CC(c1ccc(C(F)(F)F)cc1)n1nc(C(F)(F)C(F)(F)F)c2c(=O)[nH]c(O)nc21 (single isomer, unassigned) [Example 266, (R)- or (S)-6-Hydroxy-3-(perfluoroethyl)-1-(1-(4-(trifluoromethyl)phenyl)ethyl)-1H-pyrazolo[3,4-d]pyrimidin-4(5H)-one] | – | – | 14 nM | 13 nM
6 | CC(c1ccc(OC(F)(F)F)cc1)n1nc(C(F)F)c2c(=O)[nH]c(O)nc21 (single isomer, unassigned) [Example 274, (S)- or (R)-3-(Difluoromethyl)-6-hydroxy-1-(1-(4-(trifluoromethoxy)phenyl)ethyl)-1H-pyrazolo[3,4-d]pyrimidin-4(5H)-one] | – | – | 3.2 nM | 4 nM
7 | CC(c1ccc(C(F)(F)F)c(F)c1)n1nc(C(F)F)c2c(=O)[nH]c(O)nc21 (single isomer, unassigned) [Example 278, (S)- or (R)-3-(Difluoromethyl)-1-(1-(3-fluoro-4-(trifluoromethyl)phenyl)ethyl)-6-hydroxy-1H-pyrazolo[3,4-d]pyrimidin-4(5H)-one] | – | – | 1.2 nM | 1.6 nM
8 | O=c1[nH]c(O)nc2c1c(C(F)F)nn2C(c1ccc(C(F)(F)F)cc1)C1CC1 (single isomer, unassigned) [Example 279, (R)- or (S)-1-(Cyclopropyl(4-(trifluoromethyl)phenyl)methyl)-3-(difluoromethyl)-6-hydroxy-1H-pyrazolo[3,4-d]pyrimidin-4(5H)-one] | – | – | 1.8 nM | 1.9 nM
9 | CC(C)C(c1ccc(C(F)(F)F)cc1)n1nc(C(F)F)c2c(=O)[nH]c(O)nc21 (single isomer, unassigned) [Example 281, (R)- or (S)-3-(Difluoromethyl)-6-hydroxy-1-(2-methyl-1-(4-(trifluoromethyl)phenyl)propyl)-1H-pyrazolo[3,4-d]pyrimidin-4(5H)-one] | – | – | 1.2 nM | 1.3 nM
10 | CC(C)C(c1ccc(C(F)(F)F)cc1)n1nc(C(F)F)c2c(=O)[nH]c(O)nc21 (single isomer, unassigned) [Example 282, (S)- or (R)-3-(Difluoromethyl)-6-hydroxy-1-(2-methyl-1-(4-(trifluoromethyl)phenyl)propyl)-1H-pyrazolo[3,4-d]pyrimidin-4(5H)-one] | – | – | 51 nM | 59 nM
11 | CCC(c1ccc(C(F)(F)F)cc1)n1nc(C(F)F)c2c(=O)[nH]c(O)nc21 (single isomer, unassigned) [Example 286, (S)- or (R)-3-(Difluoromethyl)-6-hydroxy-1-(1-(4-(trifluoromethyl)phenyl)propyl)-1H-pyrazolo[3,4-d]pyrimidin-4(5H)-one] | – | – | 1.5 nM | 2.2 nM
12 | CC(c1ccc(OC(F)(F)F)c(F)c1)n1nc(C(F)F)c2c(=O)[nH]c(O)nc21 (single isomer, unassigned) [Example 287, (R)- or (S)-3-(Difluoromethyl)-1-(1-(3-fluoro-4-(trifluoromethoxy)phenyl)ethyl)-6-hydroxy-1H-pyrazolo[3,4-d]pyrimidin-4(5H)-one] | – | – | 44 nM | 38 nM
13 | CC(c1ccc(OC(F)(F)F)c(F)c1)n1nc(C(F)F)c2c(=O)[nH]c(O)nc21 (single isomer, unassigned) [Example 288, (S)- or (R)-3-(Difluoromethyl)-1-(1-(3-fluoro-4-(trifluoromethoxy)phenyl)ethyl)-6-hydroxy-1H-pyrazolo[3,4-d]pyrimidin-4(5H)-one] | – | – | 1.6 nM | 2.4 nM
14 | N#CCc1nn(C(c2ccc(C(F)(F)F)cc2)C2CC2)c2nc(O)[nH]c(=O)c12 (single isomer, unassigned) [Example 296] | – | – | 8.6 nM | 7.3 nM
15 | CC(c1ccc(OC(F)(F)F)c(F)c1)n1nc(CC#N)c2c(=O)[nH]c(O)nc21 (single isomer, unassigned) [Example 299, (R)- or (S)-2-(1-(1-(3-Fluoro-4-(trifluoromethoxy)phenyl)ethyl)-6-hydroxy-4-oxo-4,5-dihydro-1H-pyrazolo[3,4-d]pyrimidin-3-yl)acetonitrile] | – | – | 21 nM | 17 nM
16 | CC(c1ccc(OC(F)(F)F)cc1)n1nc(CO)c2c(=O)[nH]c(O)nc21 (stereo not shown) [Example 5] | 77 nM | 59 nM | 126 nM | –
17 | CC(c1ccc(C2CC2)cc1)n1nc(CO)c2c(=O)[nH]c(O)nc21 (stereo not shown) [Example 6, 1-(1-(4-Cyclopropylphenyl)ethyl)-6-hydroxy-3-(hydroxymethyl)-1H-pyrazolo[3,4-d]pyrimidin-4(5H)-one] | 78 nM | 50 nM | – | –
18 | CC(c1ccc(C(C)(C)C)cc1)n1nc(CO)c2c(=O)[nH]c(O)nc21 (stereo not shown) [Example 7, 1-(1-(4-tert-Butylphenyl)ethyl)-6-hydroxy-3-(hydroxymethyl)-1H-pyrazolo[3,4-d]pyrimidin-4(5H)-one] | 51 nM | 27 nM | 64 nM | 59 nM
19 | O=c1[nH]c(O)nc2c1c(CO)nn2C1(c2ccc(C(F)(F)F)cc2)CCC1 [Example 26, 6-Hydroxy-3-(hydroxymethyl)-1-(1-(4-(trifluoromethyl)phenyl)cyclobutyl)-1H-pyrazolo[3,4-d]pyrimidin-4(5H)-one] | – | – | 50 nM | 39 nM
20 | O=c1[nH]c(O)nc2c1c(CO)nn2C(CF)c1ccc(C(F)(F)F)cc1 (stereo not shown) [Example 33, 1-(2-Fluoro-1-(4-(trifluoromethyl)phenyl)ethyl)-6-hydroxy-3-(hydroxymethyl)-1H-pyrazolo[3,4-d]pyrimidin-4(5H)-one] | – | – | 50 nM | 71 nM
21 | CC(c1ccc(OC(F)(F)F)cc1)n1nc(CF)c2c(=O)[nH]c(O)nc21 (stereo not shown) [Example 36, 3-(Fluoromethvl)-6-hydroxy-1-(1-(4-(trifluoromethoxy)phenyl)ethyl)-1H-pyrazolo[3,4-d]pyrimidin-4(5H)-one] | 11 nM | 6.5 nM | 18 nM | 17 nM

— patent US10174037B2, “Dihydropyrazolopyrimidinone compounds as PDE2 inhibitors” (Merck Sharp & Dohme Corp., priority 2015, dated 2019)
